This note sets out measurements from patent US20090227607A1, “DEAZAPURINES USEFUL AS INHIBITORS OF JANUS KINASES” (priority 2006, published 2009).

For one assay, the target named is JAK-2 enzyme (Homo sapiens, UniProt O60674). Put plainly: JAK2 Inhibition Assay. The assay is classed as biochemical. To be noted: 15 μM poly(Glu)4Tyr, 12 μM ATP, 25° C. On the procedure:
(§1) Compounds were screened for their ability to inhibit JAK3 using the assay shown below. Reactions were carried out in a kinase buffer containing 100 mM HEPES (pH 7.4), 1 mM DTT, 10 mM MgCl2, 25 mM NaCl, and 0.01% BSA. Substrate concentrations in the assay were 5 μM ATP (200 uCi/μmole ATP) and 1 μM poly(Glu)4Tyr. Reactions were carried out at 25° C. and 1 nM JAK3.
(§2) To each well of a 96 well polycarbonate plate was added 1.5 μl of a candidate JAK3 inhibitor along with 50 μl of kinase buffer containing 2 μM poly(Glu)4Tyr and […]. This was then mixed and […] of kinase buffer containing 2 nM JAK3 enzyme was added to start the reaction. After 20 minutes at room temperature (25° C.), the reaction was stopped with 50 μl of 20% trichloroacetic acid (TCA) that also contained 0.4 mM ATP. The entire contents of each well were then transferred to a 96 well glass fiber filter plate using a TomTek Cell Harvester. After washing, 60 μl of scintillation fluid was added and ^33P incorporation detected on a Perkin Elmer TopCount.
The assays were as described above in Example 36 except that JAK-2 enzyme was used, the final poly(Glu)4Tyr concentration was 15 μM, and final ATP concentration was 12 μM.
(§3) Tables 5 and 6 depict enzyme inhibition data (Ki) for certain exemplary compounds. Compound numbers in Tables 5 and 6 correspond to those compounds depicted in Tables 1 and 2, respectively.

The target in a further assay is T1, JAK3 (Homo sapiens, UniProt P52333).
T1 sequence (P52333 1-1124): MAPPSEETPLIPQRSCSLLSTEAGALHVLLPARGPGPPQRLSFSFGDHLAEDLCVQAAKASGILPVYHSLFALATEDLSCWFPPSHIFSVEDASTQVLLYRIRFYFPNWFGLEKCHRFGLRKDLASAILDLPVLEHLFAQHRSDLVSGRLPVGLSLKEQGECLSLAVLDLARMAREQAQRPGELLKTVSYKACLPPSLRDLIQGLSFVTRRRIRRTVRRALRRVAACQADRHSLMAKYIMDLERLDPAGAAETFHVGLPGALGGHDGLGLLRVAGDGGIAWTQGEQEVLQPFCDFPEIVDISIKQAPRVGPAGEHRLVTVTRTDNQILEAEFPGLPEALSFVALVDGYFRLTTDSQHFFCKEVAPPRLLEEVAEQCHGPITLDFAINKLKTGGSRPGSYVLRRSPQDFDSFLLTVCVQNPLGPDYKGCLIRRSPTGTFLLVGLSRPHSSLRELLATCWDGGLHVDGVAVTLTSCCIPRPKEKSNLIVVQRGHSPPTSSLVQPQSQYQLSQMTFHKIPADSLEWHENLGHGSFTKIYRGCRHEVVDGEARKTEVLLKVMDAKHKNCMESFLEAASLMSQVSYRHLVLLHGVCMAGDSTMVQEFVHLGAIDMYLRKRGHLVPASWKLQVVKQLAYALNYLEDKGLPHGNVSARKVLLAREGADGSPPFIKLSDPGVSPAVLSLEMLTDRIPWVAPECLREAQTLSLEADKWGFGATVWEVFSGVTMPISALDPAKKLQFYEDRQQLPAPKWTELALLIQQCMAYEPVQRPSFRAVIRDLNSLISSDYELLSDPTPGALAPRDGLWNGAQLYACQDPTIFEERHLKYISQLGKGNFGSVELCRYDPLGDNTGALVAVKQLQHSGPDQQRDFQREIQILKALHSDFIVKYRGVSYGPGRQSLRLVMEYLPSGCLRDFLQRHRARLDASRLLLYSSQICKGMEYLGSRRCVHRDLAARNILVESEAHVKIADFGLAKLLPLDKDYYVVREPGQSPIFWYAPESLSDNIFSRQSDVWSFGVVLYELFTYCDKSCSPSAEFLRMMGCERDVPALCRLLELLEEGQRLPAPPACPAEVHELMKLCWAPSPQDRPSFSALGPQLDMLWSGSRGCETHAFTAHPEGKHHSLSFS
Put plainly: JAK3 Inhibition Assay. The format is biochemical. To be noted: 1 μM poly(Glu)4Tyr, 5 μM ATP, 1 nM JAK3, 25° C.; read-out: JAK3 enzyme inhibition data (Ki). On the procedure: as §1, §2, §3

A value given as a limit tells only on which side of the number the result lay.

JAK-2 enzyme, sequence (O60674 whole entry, species assumed): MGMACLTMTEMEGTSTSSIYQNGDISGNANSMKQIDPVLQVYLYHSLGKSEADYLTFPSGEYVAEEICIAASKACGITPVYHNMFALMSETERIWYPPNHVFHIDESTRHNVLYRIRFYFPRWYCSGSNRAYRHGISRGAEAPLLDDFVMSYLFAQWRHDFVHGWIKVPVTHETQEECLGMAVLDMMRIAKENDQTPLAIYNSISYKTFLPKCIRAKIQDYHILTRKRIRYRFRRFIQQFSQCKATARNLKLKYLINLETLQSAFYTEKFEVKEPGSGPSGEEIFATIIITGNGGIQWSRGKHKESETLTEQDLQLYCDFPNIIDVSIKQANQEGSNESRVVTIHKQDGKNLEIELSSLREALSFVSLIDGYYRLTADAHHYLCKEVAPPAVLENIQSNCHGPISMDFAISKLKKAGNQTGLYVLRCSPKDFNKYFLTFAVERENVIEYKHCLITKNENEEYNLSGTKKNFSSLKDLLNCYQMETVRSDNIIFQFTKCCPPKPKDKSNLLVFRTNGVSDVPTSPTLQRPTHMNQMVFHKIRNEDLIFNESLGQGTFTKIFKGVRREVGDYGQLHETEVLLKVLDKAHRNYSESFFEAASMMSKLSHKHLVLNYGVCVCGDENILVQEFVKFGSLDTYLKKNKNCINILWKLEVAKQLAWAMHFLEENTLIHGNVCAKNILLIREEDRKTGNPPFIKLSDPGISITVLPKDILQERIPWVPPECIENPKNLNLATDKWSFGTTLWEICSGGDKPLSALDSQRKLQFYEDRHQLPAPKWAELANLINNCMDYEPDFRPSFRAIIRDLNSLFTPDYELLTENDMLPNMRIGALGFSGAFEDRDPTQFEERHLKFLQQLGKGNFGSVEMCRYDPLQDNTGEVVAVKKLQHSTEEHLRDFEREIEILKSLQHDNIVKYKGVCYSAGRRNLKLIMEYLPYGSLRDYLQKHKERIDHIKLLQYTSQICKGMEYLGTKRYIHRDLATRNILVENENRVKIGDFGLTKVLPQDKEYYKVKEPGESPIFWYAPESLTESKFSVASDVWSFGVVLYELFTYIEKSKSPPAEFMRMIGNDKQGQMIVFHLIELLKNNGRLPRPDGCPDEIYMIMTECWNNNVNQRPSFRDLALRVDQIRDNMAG

As for `CCCC(CC)n1cc(-c2ncnc3[nH]ccc23)cn1` (centres unmarked) [Compound 94, 4-(1-(hexan-3-yl)-1H-pyrazol-4-yl)-7H-pyrrolo[2,3-d]pyrimidine], the Ki on JAK-2 enzyme and at JAK3 was under 100 nM each time.
For `O=C(CCC1CC1)Nc1nc(-c2ncnc3[nH]ccc23)cs1` [Compound 96], the Ki on JAK-2 enzyme and on JAK3 was under 100 nM in each case.
Consider `COC(C)C(=O)Nc1nc(-c2ncnc3[nH]ccc23)cs1` (centres unmarked) [Compound 97], for which the Ki at JAK-2 enzyme was under 100 nM; on JAK3 it was 100 to 500 nM.
Taken in the same sequence, the figures for `CCC(C)CC(=O)Nc1nc(-c2ncnc3[nH]ccc23)cs1` (centres unmarked) [Compound 98] were under 100 nM and under 100 nM.
Taken in the same sequence, the figures for `O=C(CCC(F)(F)F)Nc1nc(-c2ncnc3[nH]ccc23)cs1` [Compound 99] were under 100 nM and under 100 nM.
Take `O=C(Nc1nc(-c2ncnc3[nH]ccc23)cs1)C(O)C(F)(F)F` (centres unmarked) [Compound 100]: the Ki at JAK-2 enzyme and at JAK3 was under 100 nM in each case.
As for `O=C(Nc1nc(-c2ncnc3[nH]ccc23)cs1)C(O)c1ccccc1` (centres unmarked) [Compound 101], the Ki at JAK-2 enzyme and on JAK3 was under 100 nM each time.
With `CC(CC(F)(F)F)C(=O)Nc1nc(-c2ncnc3[nH]ccc23)cs1` (centres unmarked) [Compound 102], the Ki at JAK-2 enzyme and at JAK3 was under 100 nM in each case.
As to `CCCN(C(=O)CC(C)C)c1nc(-c2ncnc3[nH]ccc23)cs1` [Compound 103, 3-Methyl-N-propyl-N-[4-(7H-pyrrolo[2,3-d]pyrimidin-4-yl)-thiazol-2-yl]-butyramide], the Ki at JAK-2 enzyme and on JAK3 was under 100 nM each time.
As to `CCN(C(=O)CC(C)C)c1nc(-c2ncnc3[nH]ccc23)cs1` [Compound 104], the Ki on JAK-2 enzyme and on JAK3 was under 100 nM each time.
Consider `CC(C)CC(=O)N(C)c1nc(-c2ncnc3[nH]ccc23)cs1` [Compound 105], for which the Ki at JAK-2 enzyme and on JAK3 was under 100 nM throughout.
For the compound `CCCn1cc(-c2ncnc3[nH]ccc23)cn1` [Compound 106], the Ki at JAK-2 enzyme is under 100 nM; on JAK3 it was 100 to 500 nM.
Consider `CC(C)CCn1cc(-c2ncnc3[nH]ccc23)cn1` [Compound 107], for which the results for the Ki at JAK-2 enzyme and on JAK3 were under 100 nM and 100 to 500 nM, respectively.
With `O=C(c1cc(-c2ncnc3[nH]ccc23)c[nH]1)N(CCC(F)(F)F)Cc1ccccc1` [Compound 108], the Ki on JAK-2 enzyme and at JAK3 was under 100 nM throughout.
For the compound `O=C(c1cc(-c2ncnc3[nH]ccc23)c[nH]1)N(CC1CC1)CC(F)(F)F` [Compound 109], the Ki on JAK-2 enzyme and on JAK3 was under 100 nM in each case.
For `N#CCN(Cc1ccccc1)C(=O)c1cc(-c2ncnc3[nH]ccc23)c[nH]1` [Compound 111], the Ki on JAK-2 enzyme and at JAK3 was under 100 nM throughout.
As to `N#CCN(Cc1ccc(F)cc1)C(=O)c1cc(-c2ncnc3[nH]ccc23)c[nH]1` [Compound 112], the Ki on JAK-2 enzyme and at JAK3 was under 100 nM each time.
Regarding `N#CCN(Cc1cccc(Cl)c1)C(=O)c1cc(-c2ncnc3[nH]ccc23)c[nH]1` [Compound 113], the Ki on JAK-2 enzyme and on JAK3 was under 100 nM each time.
As to `C=CCN(C(=O)c1cc(-c2ncnc3[nH]ccc23)c[nH]1)C(C)c1ccccc1` (centres unmarked) [Compound 114], the Ki at JAK-2 enzyme and at JAK3 was under 100 nM throughout.
`N#CCCN(CC1CC1)C(=O)c1cc(-c2ncnc3[nH]ccc23)c[nH]1` [Compound 115]: the Ki at JAK-2 enzyme and at JAK3 was under 100 nM in each case.
Consider `C=CCN(C(=O)c1cc(-c2ncnc3[nH]ccc23)c[nH]1)C(C)c1ccccc1` (centres unmarked) [Compound 116], for which the Ki at JAK-2 enzyme and at JAK3 was under 100 nM in each case.
Consider `COC1CCC(C(=O)Nc2nc(-c3ncnc4[nH]ccc34)cs2)CC1` (centres unmarked) [Compound 117], for which the values for the Ki at JAK-2 enzyme and on JAK3 were under 100 nM and 100 to 500 nM, respectively.
In the case of `CCN(Cc1ccccc1)C(=O)c1ccc(-c2ncnc3[nH]ccc23)o1` [Compound 118], the Ki at JAK-2 enzyme and at JAK3 was under 100 nM throughout.
As for `CN(CCC#N)C(=O)c1ccc(-c2ncnc3[nH]ccc23)o1` [Compound 119], the Ki on JAK-2 enzyme and at JAK3 was under 100 nM in each case.
Turning to `O=C(c1ccc(-c2ncnc3[nH]ccc23)o1)N(CC1CC1)CC(F)(F)F` [Compound 120], the Ki on JAK-2 enzyme and at JAK3 was under 100 nM each time.
As for `CCCN(CC(F)(F)F)C(=O)c1ccc(-c2ncnc3[nH]ccc23)o1` [Compound 121], the Ki on JAK-2 enzyme and on JAK3 was under 100 nM each time.
For `O=C(c1ccc(-c2ncnc3[nH]ccc23)o1)N(CCC(F)(F)F)CC1CC1` [Compound 122], the Ki on JAK-2 enzyme and on JAK3 was under 100 nM in each case.
Take `O=C(c1ccc(-c2ncnc3[nH]ccc23)o1)N(CCC(F)(F)F)Cc1ccccc1` [Compound 123]: the Ki at JAK-2 enzyme and at JAK3 was under 100 nM throughout.
Consider `N#CCN(Cc1ccccc1)C(=O)c1ccc(-c2ncnc3[nH]ccc23)o1` [Compound 124], for which the Ki at JAK-2 enzyme was under 100 nM; at JAK3, 100 to 500 nM.
As for `N#CCCN(CC1CC1)C(=O)c1ccc(-c2ncnc3[nH]ccc23)o1` [Compound 125], the Ki on JAK-2 enzyme and on JAK3 was under 100 nM each time.
Consider `C[C@@H]1CC[C@@H](C)N1C(=O)c1ccc(-c2ncnc3[nH]ccc23)o1` [Compound 126], for which the Ki on JAK-2 enzyme and on JAK3 was under 100 nM each time.
On to `CN(CC(F)(F)F)C(=O)c1ccc(-c2ncnc3[nH]ccc23)o1` [Compound 127], for which the Ki at JAK-2 enzyme and on JAK3 was under 100 nM throughout.
In the case of `C=CCN(C(=O)CC(C)C)c1nc(-c2ncnc3[nH]ccc23)cs1` [Compound 128], the Ki at JAK-2 enzyme and at JAK3 was under 100 nM each time.
For `CC(C)CC(=O)N(CCCC(F)(F)F)c1nc(-c2ncnc3[nH]ccc23)cs1` [Compound 129], the Ki was under 100 nM at JAK-2 enzyme and 100 to 500 nM at JAK3.
As for `Nc1[nH]ncc1-c1ncnc2[nH]ccc12` [Compound 130], the Ki on JAK-2 enzyme and at JAK3 was 100 to 500 nM throughout.
As for `FC(F)(F)CN(Cc1coc(-c2ncnc3[nH]ccc23)c1)CC1CC1` [Compound 131], the Ki on JAK-2 enzyme and on JAK3 was under 100 nM each time.
For the compound `C[C@@H]1CC[C@H](C)N1C(=O)c1cc(-c2ncnc3[nH]ccc23)c[nH]1` [Compound 132], the Ki at JAK-2 enzyme was under 100 nM; on JAK3, 100 to 500 nM.
`C[C@@H](O)CNC(=O)c1cc(-c2ncnc3[nH]ccc23)c[nH]1` [Compound 133]: the inhibition constant (Ki) on JAK-2 enzyme is under 100 nM; on JAK3 it was 100 to 500 nM.
With `N#CCCN(CCC#N)C(=O)c1cc(-c2ncnc3[nH]ccc23)c[nH]1` [Compound 134], the Ki at JAK-2 enzyme and at JAK3 was under 100 nM each time.
As for `N#CCCN(Cc1ccco1)C(=O)c1cc(-c2ncnc3[nH]ccc23)c[nH]1` [Compound 135], the Ki on JAK-2 enzyme and at JAK3 was under 100 nM in each case.
Consider `N#CCCN(CC1CCCO1)C(=O)c1cc(-c2ncnc3[nH]ccc23)c[nH]1` (centres unmarked) [Compound 136], for which the Ki at JAK-2 enzyme is under 100 nM; at JAK3, 100 to 500 nM.
Turning to `C#CCN(C(=O)c1cc(-c2ncnc3[nH]ccc23)c[nH]1)C1CCCCC1` [Compound 137], the Ki at JAK-2 enzyme was under 100 nM; on JAK3 it was 100 to 500 nM.
Turning to `CCC(CC)CNC(=O)c1cc(-c2ncnc3[nH]ccc23)c[nH]1` [Compound 138], the Ki at JAK-2 enzyme and on JAK3 was under 100 nM throughout.
